# pIC50: −log10 of the molar value.
# Key:
# Jurkat cells = experiment: Killing of cultured Jurkats with and without anti-Fas; assay type: cell-based, Human; settings: for Survival % With Anti-Fas: with anti-Fas (5 ng/mL)
# Protocol: Jurkats are a T-cell derived lymphoma cell line which expresses both FAS receptor and Fas-L. These cells, however, are only mildly sensitive to Fas-L/anti-Fas induced apoptosis. Select compounds were tested for their ability to kill Jurkats. Additionally, we investigated the ability of select compounds to sensitize the Jurkats to anti-Fas mediated apoptosis.
# Human lymphoma jurkat cells were cultured in suspension in 24 well plates. Jurkat cell were treated with test compounds either alone or in the presence of suboptimal doses of anti-Fas antibody. After 18 hours of treatment cell death was assessed by Facs. Cells were incubated with propidium iodide and the percentage of cells that incorporated the stain was counted by Facs.
# HIAP1 mRNA in LAN5 cells = experiment: LAN5 HAIP1 Down Regulators (RNA levels); assay type: cell-based; settings: HIAP1 RNA level vs control = 1.0; 24 hours drug
# Protocol: LAN5 cells were grown in growth media. Cells were plated at cells 50,000 per well in 96 cells per 96 wells. Five days latter drug was added and the cells were liced 24 hours latter using RLT buffer.
# CGNs [1] = experiment: Cisplatin Killing of CGNs; assay type: cell-based, CD1 mice; settings: for pIC50: assayed 48 hours after final drug treatment
# Protocol: Cisplatin has been used extensively in the treatment of various cancers. One dosblimiting side effect of this chemotherapeutic agent is related to hearing loss as a result of its toxicity to auditory neurons and loss of feeling in the extremities. Cisplatin induces apoptosis to both cultured CGN and cortical neurons.
# CGNs were harvested from day 8/9 post-natal CD1 mice, plated on Poly-D-Lycine coated plates and incubated for 6 days at 37° C. under 5% CO2. The cells were treated with media containing drug and cisplatin […].
# CGNs [2] = experiment: High/Low Potassium (HK/LK) assay in CGNs; assay type: cell-based; settings: HK/LK switch, drug 24 h pre-treatment, assayed 16 h after media change, concentration at which cell death was inhibited by 50%
# Protocol: Cultured CGNs which are maintained in a medium containing 26 mM potassium (high K^+ or HK) undergo cell death when the medium is changed to one containing 5 mM potassium (low K^+ or LK). HK maintains the cells in a highly polarized state, duplicating that of fully innervated neurons. The switch to LK (5 mM is more representative of physiological conditions) results in depolarization of the cells, mimicking the loss of neuronal conductivity. […] As these killer genes are turned on by various types of neuronal insult as observed in AD, PD, and stroke, HK/LK is a general in vitro model for neuronal degradation, blanketing a wide range of neurodegenerative diseases. Compounds that protect against HK/LK in CGNs would therefore be efficacious in treatment and/or prevention of various neurodegenerative disease states.
# CGNs were harvested from day 8/9 post-natal CD1 mice, plated on Poly-D-Lycine coated plates and incubated for 6 days at 37° C., with […] potassium, under 5% CO2. Pretreated cells were treated with drug 24 hours prior to changing the media to one containing […] potassium and drug. Cells were assayed 16 hours after the final media change using cell TITER96 (Promega).
# CGNs [3] = experiment: Ceramide Killing of CGNs; assay type: cell-based, CD1 mice; settings: ceramide 100 uM
# Description: Ceramide is a native […] found in most mammalian and human cells. The upregulation of endogenous ceramide has been linked to caspase 1 (ICE) induced apoptosis (Suzuki, A. et al. Exp. Cel. Res., 1997, 233, 41). In a similar fashion, the addition of ceramide to cultured CGNs results in caspase induced apoptosis, and is therefore considered an effective in vitro model for the various neurodegenerative diseases described above, which are characterized by caspase induced apoptosis, as observed in stroke models. Addition of selected compounds of the formula I through III, 24 hours prior to the addition of ceramide, to cultured CGNs provided protection against apoptosis, with 10 to 20% of the cells being saved at 1–10 μM drug concentrations (see Example 114).
# CGNs were harvested from day 8/9 post-natal CD1 mice, plated on Poly-D-Lycine coated plates and incubated for 6 days at 37° C. under 5% CO2. Cells were pretreated with drug 24 hours prior to ceramide (100 uM) and drug addition.
# SHSY-5Y cells = experiment: Etoposide Killing of SHSY-5Y; assay type: cell-based; settings: etoposide 32 uM
# Protocol: SHSY-5Y cells were grown in growth media. Cells are placed at 50,000 cells per 96 well. Four days latter the cells were treated with drug for 48 hours prior to etoposide (32 uM) treatment. On day 6 media was changed to that containing etoposide and drug for 4 hours, at which point the media was changed to media containing drug only. Cells are allowed to survive overnight and then assessed for viability with metabolic activity measured (WST-1-Beohringer Mannheime), as shown in TABLE 13.
smiles,measurement,setting,value
Cn1cc(C2=C(n3cc(CCCSC(=N)N)c4ccccc43)C(=O)NC2=O)c2cc(OCc3ccccc3)ccc21 [Compound 168],Survival % With Anti-Fas,Jurkat cells; compound dose 0.3 (μM),49.0%
same,Survival % Without Anti-Fas,Jurkat cells; compound dose 0.3 (μM),90.7%
same,Survival % With Anti-Fas,Jurkat cells; compound dose 1 (μM),48.6%
same,Survival % Without Anti-Fas,Jurkat cells; compound dose 1 (μM),89.3%
same,Survival % With Anti-Fas,Jurkat cells; compound dose 3 (μM),1%
same,Survival % Without Anti-Fas,Jurkat cells; compound dose 3 (μM),46.1%
same,Survival % With Anti-Fas,Jurkat cells; compound dose 10 (μM),0%
same,Survival % Without Anti-Fas,Jurkat cells; compound dose 10 (μM),1.2%
same,Survival % With Anti-Fas,Jurkat cells; compound dose 30 (μM),0%
same,Survival % Without Anti-Fas,Jurkat cells; compound dose 30 (μM),0%
"O=C1C=C(c2cn(S(=O)(=O)c3ccc4ccccc4c3)c3ccc(Br)cc23)C(=O)N1 [Compound 62, 3-(N-(2-naphthylenesulfonyl)-5-bromoindol-3-yl)-1H-pyrrole-2,5-dione]",Fold Induction,HIAP1 mRNA in LAN5 cells,0.18
"CN(C)c1cccc2c(S(=O)(=O)n3cc(C4=CC(=O)NC4=O)c4cc(Br)ccc43)cccc12 [Compound 63, 3-(N-dansyl-5-bromoindol-3-yl)-1H-pyrrole-2,5-dione]",Fold Induction,HIAP1 mRNA in LAN5 cells,0.22
COc1ccc2c(c1)cc1c3[nH]c4ccccc4c3c3c(n21)C(=O)NC3=O [Compound 48],pIC50,CGNs [1],5.00
same,pIC50,CGNs [2],5.52
N=C(N)SCCCn1cc(C2=C(n3ccc4cc(OCc5ccccc5)ccc43)C(=O)NC2=O)c2ccccc21 [Compound 147],Survival % With Anti-Fas,Jurkat cells; compound dose 3 (μM),19.7%
same,Survival % Without Anti-Fas,Jurkat cells; compound dose 3 (μM),>90%
same,Survival % Without Anti-Fas,Jurkat cells; compound dose 10 (μM),0%
"O=C1C=C(c2cn(S(=O)(=O)c3cccc4ccccc34)c3ccc(Br)cc23)C(=O)N1 [Compound 61, 3-(N-(1-naphthylenesulfonyl)-5-bromoindol-3-yl)-1H-pyrrole-2,5-dione]",% CGN Survival,CGNs [3]; drug 100 nM,0%
same,% CGN Survival,CGNs [3]; drug 1 μM,5.1%
same,Fold Induction,HIAP1 mRNA in LAN5 cells,0.16
"O=C1C=C(c2cn(S(=O)(=O)c3ccccc3[N+](=O)[O-])c3ccccc23)C(=O)N1 [Compound 95, 3-(N-(2-nitrobenzenesulfonyl)indol-3-yl)-1H-pyrrole-2,5-dione]",pIC50,CGNs [2]; Mus musculus,5.00
"CC(C)(C)OC(=O)NCC(=O)n1cc(C2=CC(=O)NC2=O)c2cc(OCc3ccccc3)ccc21 [Compound 69, 3-(N-(N-Boc-2-aminoacetyl)-5-benzyloxyindol-3-yl)-1H-pyrrole-2,5-dione]",% SHSY-5Y cell survival,SHSY-5Y cells; drug 1 μM,5.6%
"COc1ccc2[nH]cc(CCNC(C)=O)c2c1 [melatonin, Melatonin, reference compound]",protection of CGNs,CGNs [1]; high doses,protect CGNs
"O=C1C=C(c2cn(C(=O)c3ccccc3)c3ccc(Br)cc23)C(=O)N1 [Compound 59, 3-(N-benzoyl-5-bromoindol-3-yl)-1H-pyrrole-2,5-dione]",Fold Induction,HIAP1 mRNA in LAN5 cells,0.40
"Cc1ccc(S(=O)(=O)n2cc(C3=CC(=O)NC3=O)c3cc(Br)ccc32)cc1 [Compound 60, 3-(N-(p-toluenesulfoiiyl)-5-bromoindol-3-yl)-1H-pyrrole-2,5-dione]",Fold Induction,HIAP1 mRNA in LAN5 cells,0.13
same,pIC50,CGNs [2],5.00
Cc1cc2ccccc2n1C1=C(c2cn(CCCSC(=N)N)c3ccc(OCc4ccccc4)cc23)C(=O)NC1=O [Compound 150],Survival % With Anti-Fas,Jurkat cells; compound dose 3 (μM),4.49%
same,Survival % Without Anti-Fas,Jurkat cells; compound dose 3 (μM),>90%
same,Survival % Without Anti-Fas,Jurkat cells; compound dose 10 (μM),0%
N=C(N)SCCCn1c2ccccc2c2c3c(n4c5ccccc5cc4c21)C(=O)NC3=O [Compound 145],Survival % With Anti-Fas,Jurkat cells; compound dose 3 (μM),34.9%
same,Survival % Without Anti-Fas,Jurkat cells; compound dose 3 (μM),92.44%
same,Survival % Without Anti-Fas,Jurkat cells; compound dose 10 (μM),11%
"O=C1C=C(c2cn(Cc3ccccc3)c3ccc(OCc4ccccc4)cc23)C(=O)N1 [Compound 73, 3-(N-benzyl-5-benzyloxyindol-3-yl)-1H-pyrrole-2,5-dione]",% SHSY-5Y cell survival,SHSY-5Y cells; drug 10 μM,toxic
"O=C1C=C(c2cn(S(=O)(=O)c3ccc([N+](=O)[O-])cc3)c3ccc(OCc4ccccc4)cc23)C(=O)N1 [Compound 71, 3-(N-(4-nitrobenzenesulfonyl)-5-benzyloxyindol-3-yl)-1H-pyrrole-2,5-dione]",% SHSY-5Y cell survival,SHSY-5Y cells; drug 10 μM,26.4%
"O=C1C=C(c2cn(Cc3ccc(F)cc3)c3ccc(OCc4ccccc4)cc23)C(=O)N1 [Compound 77, 3-(N-(4-fluorobenzyl)-5-benzyloxyindol-3-yl)-1H-pyrrole-2,5-dione]",pIC50,CGNs [2]; Mus musculus,5.00
"COc1ccc2c(ccn2C2=C(c3c[nH]c4ccccc34)C(=O)NC2=O)c1 [Compound 3, 3-(5-Methoxyindol-1-yl)-4-(1H-indol-3-yl)-1H-pyrrole-2,5-dione]",pIC50,CGNs [1]; Mus musculus,5.00
Cc1cn(C2=C(c3cn(CCCSC(=N)N)c4ccc(OCc5ccccc5)cc34)C(=O)NC2=O)c2ccccc12 [Compound 149],Survival % With Anti-Fas,Jurkat cells; compound dose 3 (μM),2.00%
same,Survival % Without Anti-Fas,Jurkat cells; compound dose 3 (μM),>90%
same,Survival % Without Anti-Fas,Jurkat cells; compound dose 10 (μM),0%
Cc1cn(C2=C(c3cn(CCCSC(=N)N)c4ccccc34)C(=O)NC2=O)c2ccccc12 [Compound 146],Survival % With Anti-Fas,Jurkat cells; compound dose 3 (μM),19.7%
same,Survival % Without Anti-Fas,Jurkat cells; compound dose 3 (μM),>90%
same,Survival % Without Anti-Fas,Jurkat cells; compound dose 10 (μM),0%
O=C1NC(=O)C(n2ccc3ccccc32)=C1c1cn(CCCO)c2ccccc12 [Compound 121],% SHSY-5Y cell survival,SHSY-5Y cells; drug 1 μM,5.5%
N=C(N)SCCCn1cc(C2=C(n3ccc4ccccc43)C(=O)NC2=O)c2cc(OCc3ccccc3)ccc21 [Compound 148],Survival % Without Anti-Fas,Jurkat cells; compound dose 3 (μM),>90%
same,Survival % With Anti-Fas,Jurkat cells; compound dose 10 (μM),19.7%
same,Survival % Without Anti-Fas,Jurkat cells; compound dose 10 (μM),0%
"Cc1ccc(S(=O)(=O)n2cc(C3=CC(=O)NC3=O)c3cc(OCc4ccccc4)ccc32)cc1 [Compound 70, 3-(N-tosyl-5-benzyloxyindol-3-yl)-1H-pyrrole-2,5-dione]",% SHSY-5Y cell survival,SHSY-5Y cells; drug 10 μM,7.6%
same,Fold Induction,HIAP1 mRNA in LAN5 cells,0.21
Cn1cc(C2=C(n3cc(CCCSC(=N)N)c4ccccc43)C(=O)NC2=O)c2ccccc21 [Compound 167],Survival % With Anti-Fas,Jurkat cells; compound dose 0.3 (μM),43.3%
same,Survival % Without Anti-Fas,Jurkat cells; compound dose 0.3 (μM),97.7%
same,Survival % With Anti-Fas,Jurkat cells; compound dose 1 (μM),16.7%
same,Survival % Without Anti-Fas,Jurkat cells; compound dose 1 (μM),88.3%
same,Survival % With Anti-Fas,Jurkat cells; compound dose 3 (μM),4.9%
same,Survival % Without Anti-Fas,Jurkat cells; compound dose 3 (μM),50.3%
same,Survival % With Anti-Fas,Jurkat cells; compound dose 10 (μM),0%
same,Survival % Without Anti-Fas,Jurkat cells; compound dose 10 (μM),0%
same,Survival % With Anti-Fas,Jurkat cells; compound dose 30 (μM),0%
same,Survival % Without Anti-Fas,Jurkat cells; compound dose 30 (μM),0%
COc1ccc2c(c1)CC1c3[nH]c4ccccc4c3C3=C(C(=O)NC3=O)N21 (stereo not drawn) [Compound 34],pIC50,CGNs [1],5.00
same,pIC50,CGNs [2],5.00
"O=C1C=C(c2c[nH]c3ccc(Br)cc23)C(=O)N1 [Compound 56, 3-(1H-5-bromoindol-3-yl)-1H-pyrrole-2,5-dione]",Fold Induction,HIAP1 mRNA in LAN5 cells,0.31
"O=C1C=C(c2cn(S(=O)(=O)c3ccc([N+](=O)[O-])cc3)c3ccccc23)C(=O)N1 [Compound 96, 3-(N-(4-nitrobenzenesulfonyl)indol-3-yl)-1H-pyrrole-2,5-dione]",pIC50,CGNs [2]; Mus musculus,5.00
"O=C1C=C(c2c[nH]c3ccc(Cl)cc23)C(=O)N1 [Compound 99, 3-(1H-5-chloroindol-3-yl)-1H-pyrrole-2,5-dione]",% SHSY-5Y cell survival,SHSY-5Y cells; drug 10 μM,4.7%
N=C(N)SCCCn1cc(C2=C(N3CCc4ccccc43)C(=O)NC2=O)c2ccccc21 [Compound 159],Survival % With Anti-Fas,Jurkat cells; compound dose 3 (μM),9.48%
same,Survival % Without Anti-Fas,Jurkat cells; compound dose 3 (μM),>90%
same,Survival % Without Anti-Fas,Jurkat cells; compound dose 10 (μM),17.38%

# Source: US7129250B2, “Neuroprotective and anti-proliferative compounds” (Aegera Therapeutics Inc., priority 2000, dated 2006)
